Test results as given in ChEMBL document CHEMBL1201862, “PubChem BioAssay data set” (2004).
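Exposure lasted 48 hours, with cells grown in 96-well plates and compounds tested at five concentrations. At the GI50, growth is halved.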 The source made the active and inactive calls. Cut-off read from the data, not from the text of the source: active = GI50 up to about 1.1 µM and inactive = higher.

How the values were obtained:
Test in all cases: NCI tumour cell line growth inhibition, 48 h
MDA-N = tested on: MDA-N
HCT-116 = tested on: HCT-116
HT-29 = tested on: HT-29
Malme-3M = tested on: Malme-3M
BT-549 = tested on: BT-549
DMS-273 = tested on: DMS-273
NCI-H522 = tested on: NCI-H522
SF-295 = tested on: SF-295
LXFL 529 = tested on: LXFL 529
U-251 = tested on: U-251
UO-31 = tested on: UO-31
MDA-MB-435 = tested on: MDA-MB-435
TK-10 = tested on: TK-10
SW-620 = tested on: SW-620
HOP-62 = tested on: HOP-62
HCC 2998 = tested on: HCC 2998
K562 = tested on: K562
OVCAR-3 = tested on: OVCAR-3
HL-60 = tested on: HL-60
NCI/ADR-RES = tested on: NCI/ADR-RES
EKVX = tested on: EKVX
DU-145 = tested on: DU-145
OVCAR-4 = tested on: OVCAR-4
NCI-H460 = tested on: NCI-H460
HOP-92 = tested on: HOP-92
CCRF-CEM = tested on: CCRF-CEM
MCF7 = tested on: MCF7
SK-MEL-28 = tested on: SK-MEL-28
UACC-62 = tested on: UACC-62
MDA-MB-231 = tested on: MDA-MB-231
DMS-114 = tested on: DMS-114
ACHN = tested on: ACHN
RPMI-8226 = tested on: RPMI-8226
NCI-H226 = tested on: NCI-H226
SN12C = tested on: SN12C
IGROV-1 = tested on: IGROV-1
SK-MEL-2 = tested on: SK-MEL-2
UACC-257 = tested on: UACC-257
CAKI-1 = tested on: CAKI-1
KM-20L2 = tested on: KM-20L2
SK-MEL-5 = tested on: SK-MEL-5
A549 = tested on: A549
SF-268 = tested on: SF-268
A498 = tested on: A498
RXF 631 = tested on: RXF 631
SR = tested on: SR
786-0 = tested on: 786-0
COLO 205 = tested on: COLO 205
OVCAR-5 = tested on: OVCAR-5
SNB-19 = tested on: SNB-19
MOLT-4 = tested on: MOLT-4
NCI-H23 = tested on: NCI-H23
DLD-1 = tested on: DLD-1
RXF 393 = tested on: RXF 393
KM12 = tested on: KM12
XF498 = tested on: XF498
M19-MEL = tested on: M19-MEL
Hs-578T = tested on: Hs-578T
LOX IMVI = tested on: LOX IMVI
SNB-78 = tested on: SNB-78
PC-3 = tested on: PC-3
M14 = tested on: M14
SF-539 = tested on: SF-539
OVCAR-8 = tested on: OVCAR-8
SK-OV-3 = tested on: SK-OV-3
HCT-15 = tested on: HCT-15
HOP-18 = tested on: HOP-18
SNB-75 = tested on: SNB-75

Compound: COc1ccc(CCc2cc(OC)c(OC)c(OC)c2)cc1
- GI50 (MDA-N): < 10 nM (active)
- GI50 (HCT-116): 21.4 nM (active)
- GI50 (HT-29): 23.5 nM (active)
- GI50 (Malme-3M): 271 nM (active)
- GI50 (BT-549): 2320 nM (inactive)
- GI50 (DMS-273): < 10 nM (active)
- GI50 (NCI-H522): 19.5 nM (active)
- GI50 (SF-295): 17.8 nM (active)
- GI50 (LXFL 529): 55.2 nM (active)
- GI50 (U-251): 24.7 nM (active)
- GI50 (UO-31): 1950 nM (inactive)
- GI50 (MDA-MB-435): < 10 nM (active)
- GI50 (TK-10): 2640 nM (inactive)
- GI50 (SW-620): 17.1 nM (active)
- GI50 (HOP-62): 19.6 nM (active)
- GI50 (HCC 2998): 56.8 nM (active)
- GI50 (K562): 12 nM (active)
- GI50 (OVCAR-3): 20 nM (active)
- GI50 (HL-60): 14 nM (active)
- GI50 (NCI/ADR-RES): 62.2 nM (active)
- GI50 (EKVX): 1180 nM (inactive)
- GI50 (DU-145): 93.5 nM (active)
- GI50 (OVCAR-4): 5050 nM (inactive)
- GI50 (NCI-H460): 27.7 nM (active)
- GI50 (HOP-92): 805 nM (active)
- GI50 (CCRF-CEM): 20.4 nM (active)
- GI50 (MCF7): 28.3 nM (active)
- GI50 (SK-MEL-28): 183 nM (active)
- GI50 (UACC-62): 16.5 nM (active)
- GI50 (MDA-MB-231): 296 nM (active)
- GI50 (DMS-114): 24.8 nM (active)
- GI50 (ACHN): 824 nM (active)
- GI50 (RPMI-8226): 30.9 nM (active)
- GI50 (NCI-H226): 386 nM (active)
- GI50 (SN12C): 114 nM (active)
- GI50 (IGROV-1): 61.2 nM (active)
- GI50 (SK-MEL-2): 146 nM (active)
- GI50 (UACC-257): 544 nM (active)
- GI50 (CAKI-1): 20.6 nM (active)
- GI50 (KM-20L2): 12.8 nM (active)
- GI50 (SK-MEL-5): 21.2 nM (active)
- GI50 (A549): 40.3 nM (active)
- GI50 (SF-268): 423 nM (active)
- GI50 (A498): < 20.7 nM (active)
- GI50 (RXF 631): < 16.6 nM (active)
- GI50 (SR): < 10 nM (active)
- GI50 (786-0): 150 nM (active)
- GI50 (COLO 205): 19.1 nM (active)
- GI50 (OVCAR-5): 456 nM (active)
- GI50 (SNB-19): 111 nM (active)
- GI50 (MOLT-4): 33.1 nM (active)
- GI50 (NCI-H23): 74.3 nM (active)
- GI50 (DLD-1): < 10 nM (active)
- GI50 (RXF 393): 20.5 nM (active)
- GI50 (KM12): 11.8 nM (active)
- GI50 (XF498): < 10 nM (active)
- GI50 (M19-MEL): < 22.6 nM (active)
- GI50 (Hs-578T): 43.8 nM (active)
- GI50 (LOX IMVI): 37.2 nM (active)
- GI50 (SNB-78): 16.9 nM (active)
- GI50 (PC-3): 43 nM (active)
- GI50 (M14): 31.8 nM (active)
- GI50 (SF-539): 25.8 nM (active)
- GI50 (OVCAR-8): 100 nM (active)
- GI50 (SK-OV-3): 23.6 nM (active)
- GI50 (HCT-15): 16.9 nM
- GI50 (HOP-18): > 100000 nM (inactive)
- GI50 (SNB-75): 39.5 nM (active)
